What all share (format): functional
The subject of one test is Saprolegnia. Nature of the test: Antifungal activity against Saprolegnia species assessed as lowest dose level for total inhibition of fungal growth.
For a further test, the system named is Mucor. Nature of the test: Antifungal activity against Mucor species assessed as lowest dose level for total inhibition of fungal growth.
A further test has as its system Cryptococcus neoformans. Nature of the test: Antifungal activity against Cryptococcus neoformans assessed as lowest dose level for total inhibition of fungal growth.
The test system of the next test is Streptococcus pyogenes. The test can be described thus: Antibacterial activity against Streptococcus pyogenes assessed as lowest dose level for total inhibition of bacterial growth.
For another test, the system named is Microsporum canis. Nature of the test: Antifungal activity against Microsporum canis assessed as lowest dose level for total inhibition of fungal growth.
The test system of a further test is Trichophyton rubrum. The test can be described thus: Antifungal activity against Trichophyton rubrum assessed as lowest dose level for total inhibition of fungal growth.
The test system of test [1] is Erysipelothrix rhusiopathiae. The test can be described thus: Antibacterial activity against Erysipelothrix insidiosa assessed as lowest dose level for total inhibition of bacterial growth.
The subject of the next test is Sporothrix schenckii. The test can be described thus: Antifungal activity against Sporothrix schenckii assessed as lowest dose level for total inhibition of fungal growth.
Test [2] deals with Staphylococcus haemolyticus. The test can be described thus: Antibacterial activity against Staphylococcus haemolyticus assessed as lowest dose level for total inhibition of bacterial growth.
The next test relates to Phialophora verrucosa. The test can be described thus: Antifungal activity against Phialophora verrucosa assessed as lowest dose level for total inhibition of fungal growth.
Test [3] relates to Trichophyton mentagrophytes. The test can be described thus: Antifungal activity against Trichophyton mentagrophytes assessed as lowest dose level for total inhibition of fungal growth.
A further test concerns Candida tropicalis. Nature of the test: Antifungal activity against Candida tropicalis assessed as lowest dose level for total inhibition of fungal growth.
In a further test the test system is Candida albicans. Nature of the test: Antifungal activity against Candida albicans assessed as lowest dose level for total inhibition of fungal growth.
The next test concerns Aspergillus fumigatus. The test can be described thus: Antifungal activity against Aspergillus fumigatus assessed as lowest dose level for total inhibition of fungal growth.

Some results are limits rather than exact numbers.

The results in this text go back to ChEMBL document CHEMBL3271999, “Antimycotic imidazoles. 2. Synthesis and antimycotic properties of 1-[2-(arylalkyl)-2-phenylethyl]-1H-imidazoles” (1977).

As to `Clc1ccc(C(CCc2ccc(Br)cc2)Cn2ccnc2)c(Cl)c1.O=[N+]([O-])O` (stereo not drawn), the Activity in the test on Saprolegnia is 10 µg/mL; in the test with Mucor, >100 µg/mL; with Cryptococcus neoformans, <1 µg/mL; in the test on Streptococcus pyogenes, <1 µg/mL; in the test on Microsporum canis it was 10 µg/mL; in the test with Trichophyton rubrum, <1 µg/mL. In addition, the Activity in test [1] is <1 µg/mL; with Sporothrix schenckii it was 10 µg/mL; in test [2], 10 µg/mL; with Phialophora verrucosa it was 100 µg/mL; in test [3], <1 µg/mL; with Candida tropicalis, 10 µg/mL. The values for the Activity in the test with Candida albicans and with Aspergillus fumigatus were >100 µg/mL and 100 µg/mL, respectively.

Consider `Cc1ccccc1C(Cc1c(Cl)cccc1Cl)Cn1ccnc1.O=[N+]([O-])O` (stereo not drawn), for which the Activity was 100 µg/mL in the test with Saprolegnia; 100 µg/mL with Mucor; 100 µg/mL with Cryptococcus neoformans; <1 µg/mL in the test on Streptococcus pyogenes; 10 µg/mL in the test on Microsporum canis; <1 µg/mL with Trichophyton rubrum. In addition, the Activity in [1] was <1 µg/mL; with Sporothrix schenckii, 100 µg/mL; in test [2] it was 10 µg/mL; with Phialophora verrucosa, 100 µg/mL; in [3], <1 µg/mL; in the test on Candida tropicalis, >100 µg/mL. In addition, the Activity with Candida albicans was >100 µg/mL; in the test with Aspergillus fumigatus, 100 µg/mL.

`Clc1ccccc1C(Cc1c(Cl)cccc1Cl)Cn1ccnc1.O=[N+]([O-])O` (stereo not drawn): the Activity was 100 µg/mL in the test with Saprolegnia; >100 µg/mL in the test on Mucor; 10 µg/mL with Cryptococcus neoformans; <1 µg/mL in the test on Streptococcus pyogenes; <1 µg/mL in the test on Microsporum canis; <1 µg/mL in the test with Trichophyton rubrum. Further, the Activity is 1 µg/mL in test [1]; 10 µg/mL in the test on Sporothrix schenckii; 1 µg/mL in test [2]; 100 µg/mL with Phialophora verrucosa; <1 µg/mL in test [3]; >100 µg/mL in the test with Candida tropicalis. For the same molecule, the figures for the Activity in the test on Candida albicans and in the test on Aspergillus fumigatus were 100 µg/mL and 10 µg/mL, respectively.

Consider `Cc1ccccc1C(Cc1ccc(Cl)cc1)Cn1ccnc1.O=[N+]([O-])O` (stereo not drawn), for which the Activity was 100 µg/mL with Saprolegnia; 100 µg/mL with Mucor; 10 µg/mL with Cryptococcus neoformans; <1 µg/mL with Streptococcus pyogenes; 10 µg/mL with Microsporum canis; 10 µg/mL with Trichophyton rubrum. The Activity in test [1] is 1 µg/mL; with Sporothrix schenckii, 100 µg/mL; in test [2] it was 10 µg/mL; with Phialophora verrucosa it was 100 µg/mL; in test [3], <1 µg/mL; in the test with Candida tropicalis, >100 µg/mL. In addition, the Activity with Candida albicans was >100 µg/mL; in the test on Aspergillus fumigatus, 100 µg/mL.

On to `Clc1ccc(C(Cc2c(Cl)cccc2Cl)Cn2ccnc2)cc1.O=[N+]([O-])O` (stereo not drawn), for which the Activity in the test with Saprolegnia is 100 µg/mL; in the test with Mucor, 10 µg/mL; with Cryptococcus neoformans, <1 µg/mL; in the test on Streptococcus pyogenes, <1 µg/mL; in the test on Microsporum canis it was 10 µg/mL; in the test on Trichophyton rubrum, 10 µg/mL. Also, the Activity in test [1] is <1 µg/mL; in the test with Sporothrix schenckii, 10 µg/mL; in test [2], 10 µg/mL; in the test with Phialophora verrucosa, 100 µg/mL; in test [3] it was <1 µg/mL; in the test with Candida tropicalis, >100 µg/mL. For the same molecule, the values for the Activity in the test on Candida albicans and in the test on Aspergillus fumigatus were >100 µg/mL and 100 µg/mL, respectively.

Take `Cc1ccccc1C(Cc1ccc(Cl)cc1Cl)Cn1ccnc1.O=[N+]([O-])O` (stereo not drawn): the Activity in the test on Saprolegnia was 100 µg/mL; in the test on Mucor, 10 µg/mL; in the test on Cryptococcus neoformans, 10 µg/mL; in the test on Streptococcus pyogenes, 10 µg/mL; with Microsporum canis, 10 µg/mL; with Trichophyton rubrum it was <1 µg/mL. The Activity in [1] was 1 µg/mL; in the test with Sporothrix schenckii, 10 µg/mL; in test [2] it was 10 µg/mL; in the test on Phialophora verrucosa, 100 µg/mL; in [3], <1 µg/mL; in the test with Candida tropicalis, 100 µg/mL. In addition, the Activity was determined as 100 µg/mL with Candida albicans and 10 µg/mL in the test with Aspergillus fumigatus.

Regarding `Clc1ccc(C(Cc2ccc(Cl)cc2Cl)Cn2ccnc2)cc1.O=[N+]([O-])O` (stereo not drawn), the Activity is 100 µg/mL in the test with Saprolegnia; 100 µg/mL in the test on Mucor; <1 µg/mL in the test with Cryptococcus neoformans; 1 µg/mL in the test on Streptococcus pyogenes; 10 µg/mL in the test with Microsporum canis; <1 µg/mL with Trichophyton rubrum. Moreover, the Activity is <1 µg/mL in test [1]; 10 µg/mL in the test on Sporothrix schenckii; 10 µg/mL in [2]; 100 µg/mL in the test with Phialophora verrucosa; <1 µg/mL in [3]; 100 µg/mL with Candida tropicalis. Besides, the Activity with Candida albicans and in the test on Aspergillus fumigatus was 100 µg/mL each time.

As for `Clc1ccc(COC(Cn2ccnc2)c2ccc(Cl)cc2Cl)c(Cl)c1` (stereo not drawn) [MICONAZOLE], the Activity is 10 µg/mL with Saprolegnia; >100 µg/mL in the test with Mucor; 1 µg/mL with Cryptococcus neoformans; <1 µg/mL with Streptococcus pyogenes; 1 µg/mL with Microsporum canis; <1 µg/mL in the test with Trichophyton rubrum. Besides, the Activity in test [1] was <1 µg/mL; in the test on Sporothrix schenckii, 1 µg/mL; in [2], 10 µg/mL; in the test with Phialophora verrucosa it was 100 µg/mL; in test [3], <1 µg/mL; with Candida tropicalis, 100 µg/mL. Also, the Activity in the test on Candida albicans and in the test on Aspergillus fumigatus was 10 µg/mL each time.

Regarding `Clc1ccc(C(Cc2ccccc2Cl)Cn2ccnc2)c(Cl)c1.O=[N+]([O-])O` (stereo not drawn), the Activity with Saprolegnia was 10 µg/mL; in the test on Mucor, 100 µg/mL; in the test with Cryptococcus neoformans, <1 µg/mL; in the test with Streptococcus pyogenes, <1 µg/mL; in the test on Microsporum canis, 10 µg/mL; in the test with Trichophyton rubrum, <1 µg/mL. The Activity was <1 µg/mL in test [1]; <1 µg/mL in the test on Sporothrix schenckii; 10 µg/mL in test [2]; 10 µg/mL with Phialophora verrucosa; <1 µg/mL in test [3]; <1 µg/mL with Candida tropicalis. Besides, the Activity in the test with Candida albicans and in the test on Aspergillus fumigatus was 100 µg/mL each time.

On to `Clc1ccc(C(Cc2c(Cl)cccc2Cl)Cn2ccnc2)c(Cl)c1.O=[N+]([O-])O` (stereo not drawn), for which the Activity is 100 µg/mL with Saprolegnia; 100 µg/mL with Mucor; <1 µg/mL in the test on Cryptococcus neoformans; 1 µg/mL with Streptococcus pyogenes; 10 µg/mL in the test on Microsporum canis; <1 µg/mL with Trichophyton rubrum. Moreover, the Activity is 1 µg/mL in [1]; <1 µg/mL in the test with Sporothrix schenckii; 100 µg/mL in test [2]; 100 µg/mL in the test on Phialophora verrucosa; <1 µg/mL in test [3]; 100 µg/mL in the test on Candida tropicalis. Besides, the Activity in the test on Candida albicans and in the test with Aspergillus fumigatus was 100 µg/mL each time.

For `Clc1ccc(C(CCc2ccccc2Cl)Cn2ccnc2)c(Cl)c1.O=[N+]([O-])O` (stereo not drawn), the Activity with Saprolegnia is 100 µg/mL; in the test on Mucor, 100 µg/mL; with Cryptococcus neoformans, <1 µg/mL; in the test with Streptococcus pyogenes it was 1 µg/mL; in the test with Microsporum canis, 10 µg/mL; with Trichophyton rubrum it was <1 µg/mL. For the same molecule, the Activity in test [1] was <1 µg/mL; in the test with Sporothrix schenckii, <1 µg/mL; in test [2] it was 1 µg/mL; in the test with Phialophora verrucosa, 100 µg/mL; in test [3], <1 µg/mL; in the test on Candida tropicalis, >100 µg/mL. For the same molecule, the Activity in the test with Candida albicans stood at 10 µg/mL; in the test on Aspergillus fumigatus it was 100 µg/mL.

Regarding `Clc1ccc(CC(Cn2ccnc2)c2ccccc2Br)cc1.O=[N+]([O-])O` (stereo not drawn), the Activity in the test with Saprolegnia is 100 µg/mL; in the test with Mucor, 100 µg/mL; in the test with Cryptococcus neoformans it was <1 µg/mL; in the test on Streptococcus pyogenes, 1 µg/mL; with Microsporum canis, 100 µg/mL; with Trichophyton rubrum, <1 µg/mL. Besides, the Activity was <1 µg/mL in test [1]; 10 µg/mL in the test with Sporothrix schenckii; 10 µg/mL in [2]; 100 µg/mL in the test with Phialophora verrucosa; <1 µg/mL in test [3]; >100 µg/mL in the test on Candida tropicalis. Moreover, the Activity with Candida albicans was found to be 10 µg/mL; in the test with Aspergillus fumigatus, 100 µg/mL.
